Converted amounts (≈) assume the structure as drawn.
What was measured:
Assay in all cases: In vitro antibacterial evaluation: minimum inhibitory concentration (MIC), broth dilution method
Format in all cases: cell-based
[1] = system: Streptococcus sp.
How it was run: (§1)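 Inoculum: 5×10^5 CFU/mL. Range: 64-0.06 μg/mL. Medium: Muller-Hinton II […]; NCCLS M7-A2 broth dilution. Endpoint: lowest concentration inhibiting growth. Strains include methicillin-, penicillin- and/or vancomycin-resistant clinical isolates.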

[2] = system: Staphylococcus sp.; conditions: broth dilution, 18 hours at 35° C.
How it was run: as §1

[3] = system: Escherichia coli
How it was run: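 NCCLS M7-A2 broth dilution with Mueller-Hinton II, testing 64-0.06 μg/mL antibiotic against 5×10^5 CFU/mL inocula. Test strains include recent methicillin-, penicillin- or vancomycin-resistant clinical isolates. MIC is the lowest concentration preventing growth.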

[4] = system: Enterococcus sp.
How it was run: as §1

[5] = broth dilution, inoculum 5×10^5 CFU/mL, 18 hours at 35° C.

CC(c1ccccc1)C1NC(=O)CNC(=O)C(CO)NC(=O)C(C(O)C2CNC(=N)N2C2OC(CO)C(O)C(O)C2O)NC(=O)C(C(O)C2CNC(=N)N2)NC(=O)C(Cc2ccc(OC3OC(CO)C(OC4OC(CO)C(O)C5OC(c6ccc(-c7ccsc7)cc6)OC45)C(O)C3O)cc2)NC1=O (stereo not drawn) [Example 164a, Cyclo[glycyl-β-methylphenylalanyl-O-[4-O-[2,3-O-[4-(3-thienyl)benzylidene]hexopyranosyl]-hexopyranosyl]tyrosyl-3-(2-iminoimidazolidin-4-yl)seryl-3-(3-hexopyranosyl-2-iminoimidazolidin-4-yl)serylseryl]]
MIC Streptococcus agalactiae (GC 4564) [1, 5]: 1 µg/mL (≈ 0.682 µM)
MIC Streptococcus pneumoniae (ATCC 6301) [1, 5]: 1 µg/mL (≈ 0.682 µM)
MIC Streptococcus pneumoniae (GC 1894) [1, 5]: 0.25 µg/mL (≈ 0.171 µM)
MIC Streptococcus pneumoniae (GC 4565) [1, 5]: 1 µg/mL (≈ 0.682 µM)
MIC Streptococcus pyogenes (GC 4563) [1, 5]: 0.5 µg/mL (≈ 0.341 µM)
MIC Streptococcus pneumoniae (ATCC 6301) ([1]; strain ATCC 6301): 1 µg/mL (≈ 0.682 µM)
MIC Streptococcus pneumoniae (GC 1894) ([1]; strain GC 1894): 0.25 µg/mL (≈ 0.171 µM)
MIC Streptococcus pyogenes (GC 4563) ([1]; strain GC 4563): 0.5 µg/mL (≈ 0.341 µM)
MIC Streptococcus agalactiae (GC 4564) ([1]; strain GC 4564): 1 µg/mL (≈ 0.682 µM)
MIC Streptococcus pneumoniae (GC 4565) ([1]; strain GC 4565): 1 µg/mL (≈ 0.682 µM)
MIC Coagulase Negative Staphylococcus (GC 4547) ([2]; 5×10^5 CFU/mL): 8 µg/mL (≈ 5.46 µM)
MIC Coagulase Negative Staphylococcus (GC 4548) ([2]; 5×10^5 CFU/mL): 4 µg/mL (≈ 2.73 µM)
MIC Coagulase Negative Staphylococcus (GC 4549) ([2]; 5×10^5 CFU/mL): 4 µg/mL (≈ 2.73 µM)
MIC Coagulase Negative Staphylococcus (GC 4551) ([2]; 5×10^5 CFU/mL): 8 µg/mL (≈ 5.46 µM)
MIC Coagulase Negative Staphylococcus (GC 6257) ([2]; 5×10^5 CFU/mL): 4 µg/mL (≈ 2.73 µM)
MIC Staphylococcus aureus (ATCC 29213) ([2]; 5×10^5 CFU/mL): 8 µg/mL (≈ 5.46 µM)
MIC Staphylococcus aureus (GC 1131) ([2]; 5×10^5 CFU/mL): 8 µg/mL (≈ 5.46 µM)
MIC Staphylococcus aureus (GC 3051) ([2]; 5×10^5 CFU/mL): 8 µg/mL (≈ 5.46 µM)
MIC Staphylococcus aureus (GC 3053) ([2]; 5×10^5 CFU/mL): 8 µg/mL (≈ 5.46 µM)
MIC Staphylococcus aureus (GC 4541) ([2]; 5×10^5 CFU/mL): 8 µg/mL (≈ 5.46 µM)
MIC Staphylococcus aureus (GC 4542) ([2]; 5×10^5 CFU/mL): 16 µg/mL (≈ 10.9 µM)
MIC Staphylococcus aureus (GC 4544) ([2]; 5×10^5 CFU/mL): 8 µg/mL (≈ 5.46 µM)
MIC Staphylococcus aureus (GC 4545) ([2]; 5×10^5 CFU/mL): 8 µg/mL (≈ 5.46 µM)
MIC Staphylococcus aureus-SMITH (GC 4543) ([2]; 5×10^5 CFU/mL): 8 µg/mL (≈ 5.46 µM)
MIC Staphylococcus haemolyticus (GC 4546) ([2]; 5×10^5 CFU/mL): 4 µg/mL (≈ 2.73 µM)
MIC Staphylococcus aureus (ATCC 29213) ([2]; strain ATCC 29213): 8 µg/mL (≈ 5.46 µM)
MIC Staphylococcus aureus (GC 1131) ([2]; strain GC 1131): 8 µg/mL (≈ 5.46 µM)
MIC Staphylococcus aureus (GC 3051) ([2]; strain GC 3051): 8 µg/mL (≈ 5.46 µM)
MIC Staphylococcus aureus (GC 3053) ([2]; strain GC 3053): 8 µg/mL (≈ 5.46 µM)
MIC Staphylococcus aureus (GC 4541) ([2]; strain GC 4541): 8 µg/mL (≈ 5.46 µM)
MIC Staphylococcus aureus (GC 4542) ([2]; strain GC 4542): 16 µg/mL (≈ 10.9 µM)
MIC Staphylococcus aureus-SMITH (GC 4543) ([2]; strain GC 4543): 8 µg/mL (≈ 5.46 µM)
MIC Staphylococcus aureus (GC 4544) ([2]; strain GC 4544): 8 µg/mL (≈ 5.46 µM)
MIC Staphylococcus aureus (GC 4545) ([2]; strain GC 4545): 8 µg/mL (≈ 5.46 µM)
MIC Staphylococcus haemolyticus (GC 4546) ([2]; strain GC 4546): 4 µg/mL (≈ 2.73 µM)
MIC Coagulase Negative Staphylococcus (GC 4547) ([2]; strain GC 4547): 8 µg/mL (≈ 5.46 µM)
MIC Coagulase Negative Staphylococcus (GC 4548) ([2]; strain GC 4548): 4 µg/mL (≈ 2.73 µM)
MIC Coagulase Negative Staphylococcus (GC 4549) ([2]; strain GC 4549): 4 µg/mL (≈ 2.73 µM)
MIC Coagulase Negative Staphylococcus (GC 4551) ([2]; strain GC 4551): 8 µg/mL (≈ 5.46 µM)
MIC Coagulase Negative Staphylococcus (GC 6257) ([2]; strain GC 6257): 4 µg/mL (≈ 2.73 µM)
MIC Escherichia coli (ATCC 25922) ([3]; strain ATCC 25922): 32 µg/mL (≈ 21.8 µM)
MIC Escherichia coli (GC 4559) ([3]; strain GC 4559): 32 µg/mL (≈ 21.8 µM)
MIC Escherichi coli (GC 4560) ([3]; strain GC 4560): 8 µg/mL (≈ 5.46 µM)
MIC Enterococcus avium (GC 4558) [4, 5]: 8 µg/mL (≈ 5.46 µM)
MIC Enterococcus faecalis (ATCC 29212) [4, 5]: 16 µg/mL (≈ 10.9 µM)
MIC Enterococcus faecalis (GC 2242) [4, 5]: 16 µg/mL (≈ 10.9 µM)
MIC Enterococcus faecalis (GC 2691) [4, 5]: 16 µg/mL (≈ 10.9 µM)
MIC Enterococcus faecalis (GC 3059) [4, 5]: 16 µg/mL (≈ 10.9 µM)
MIC Enterococcus faecalis (GC 4552) [4, 5]: 16 µg/mL (≈ 10.9 µM)
MIC Enterococcus faecalis (GC 4553) [4, 5]: 16 µg/mL (≈ 10.9 µM)
MIC Enterococcus faecalis (GC 4554) [4, 5]: 16 µg/mL (≈ 10.9 µM)
MIC Enterococcus faecalis (GC 6189) [4, 5]: 16 µg/mL (≈ 10.9 µM)
MIC Enterococcus faecium (GC 2243) [4, 5]: 8 µg/mL (≈ 5.46 µM)
MIC Enterococcus faecium (GC 4556) [4, 5]: 16 µg/mL (≈ 10.9 µM)
MIC Enterococcus faecium (GC 4557) [4, 5]: 4 µg/mL (≈ 2.73 µM)
MIC Enterococcus faecalis (ATCC 29212) ([4]; strain ATCC 29212): 16 µg/mL (≈ 10.9 µM)
MIC Enterococcus faecalis (GC 2242) ([4]; strain GC 2242): 16 µg/mL (≈ 10.9 µM)
MIC Enterococcus faecium (GC 2243) ([4]; strain GC 2243): 8 µg/mL (≈ 5.46 µM)
MIC Enterococcus faecalis (GC 2691) ([4]; strain GC 2691): 16 µg/mL (≈ 10.9 µM)
MIC Enterococcus faecalis (GC 3059) ([4]; strain GC 3059): 16 µg/mL (≈ 10.9 µM)
MIC Enterococcus faecalis (GC 4552) ([4]; strain GC 4552): 16 µg/mL (≈ 10.9 µM)
MIC Enterococcus faecalis (GC 4553) ([4]; strain GC 4553): 16 µg/mL (≈ 10.9 µM)
MIC Enterococcus faecalis (GC 4554) ([4]; strain GC 4554): 16 µg/mL (≈ 10.9 µM)
MIC Enterococcus faecium (GC 4556) ([4]; strain GC 4556): 16 µg/mL (≈ 10.9 µM)
MIC Enterococcus faecium (GC 4557) ([4]; strain GC 4557): 4 µg/mL (≈ 2.73 µM)
MIC Enterococcus avium (GC 4558) ([4]; strain GC 4558): 8 µg/mL (≈ 5.46 µM)
MIC Enterococcus faecalis (GC 6189) ([4]; strain GC 6189): 16 µg/mL (≈ 10.9 µM)
